Data: patent publication US9700044B2, “Symmetrical marinopyrrole derivatives as potential antibiotic agents” (priority 2013, dated 2017)
In brackets after ≈: the same amount, converted by molar mass. Several values for one entry are separate records, joined by “and”; a condition that tells them apart may be missing. Equal values may be shown once. Read-outs that look alike come from different tables or passages of the source.

What was measured:
[1] = test system: Methicillin-susceptible Staphylococcus aureus (MSSA); experiment: MIC by agar dilution, MSSA clinical isolates; type: cell-based; details: for MIC: MSSA
Description: (§1) A panel of multiple resistance Gram-positive and Gram-negative pathogens listed in Tables 1 and 2 was used to evaluate the antimicrobial activity of marinopyrrole derivatives (Chart 1) with vancomycin as a positive control. Except for those marked with WHO, all pathogens were isolated between 2008 and 2010 in hospitals located in Beijing; Guangzhou; Sichuan, Shandong and Jiangsu Province. Determination of the minimum inhibitory concentration (MIC) was done by the guidelines of the Clinical and Laboratory Standards Institute (Clinical and Laboratory Standards Institute, Performance standards for antimicrobial susceptibility testing, seventeenth informational supplement. 2007, 27, M100-S17). The susceptibility tests of a bacterial strain to a marinopyrrole derivative were performed by an agar dilution method. Briefly, each sterile petri dish contained a final volume of 15 mL comprising 1 mL of a marinopyrrole derivative and 14 mL of Mueller-Hinton broth. The concentrations of a marinopyrrole derivative are 128, 64, 32, 16, 8, 4, 2, 1, 0.5, 0.25, 0.125, 0.06, 0.03, 0.015 and 0.008 μg/mL. The petri dish containing the broth with different concentration of antibiotics was first inoculated with 10^5 CFU/mL (Denley A400, United Kingdom) and the culture was then incubated with shaking at 35-37° C. for 18-20 h. The potency of the compound was determined and expressed as minimum inhibitory concentration (MIC) in μg/mL. The MIC was determined as the lowest concentration of antibiotic that inhibited visible bacterial growth.

[2] = test system: Moderately vancomycin-resistant Enterococci faecium with the VanA gene (WHO-3); experiment: MIC by agar dilution, VRE (WHO-3); type: cell-based
Description: as §1

[3] = test system: Methicillin-resistant Staphylococcus epidermidis (MRSE); experiment: MIC by agar dilution, MRSE clinical isolates; type: cell-based; details: for MIC: MRSE
Description: as §1

[4] = test system: Methicillin-resistant Staphylococcus aureus (MRSA); experiment: MIC by agar dilution, MRSA clinical isolates; type: cell-based; details: for MIC: MRSA
Description: as §1

[5] = test system: Methicillin-resistant Staphylococcus aureus with the mec A gene and PBP2a (WHO-31); experiment: MIC by agar dilution, MRSA (WHO-31); type: cell-based
Description: as §1

[6] = test system: Oxacillin-resistant Staphylococcus aureus (WHO-25); experiment: MIC by agar dilution, ORSA (WHO-25); type: cell-based
Description: as §1

[7] = test system: Highly vancomycin-resistant Enterococci faecalis (VRE); experiment: MIC by agar dilution, highly resistant VRE; type: cell-based; details: Table 1; VRE (highly vancomycin-resistant E. faecalis), 2 isolates
Description: as §1

K. penumonia = experiment: MIC by agar dilution, K. penumonia; type: cell-based, K. pneumonia; details: Table 1; K. penumonia, 4 isolates; value over three Gram-negative pathogens
Description: as §1

E. coli = experiment: MIC by agar dilution, E. coli; type: cell-based; details: Table 1; E. coli, 4 isolates; value over three Gram-negative pathogens
Description: as §1

P. aeruginosa = experiment: MIC by agar dilution, P. aeruginosa; type: cell-based; details: Table 1; P. aeruginosa, 4 isolates; value over three Gram-negative pathogens
Description: as §1

[8] = Staphylococcus aureus, Table 2, data from 8 isolates, read-out: MIC
[9] = Enterococcus, Table 2, WHO-3, read-out: MIC
[10] = Staphylococcus epidermidis, Table 2, data from 4 isolates, read-out: MIC
[11] = Staphylococcus aureus, Table 2, WHO-31, read-out: MIC
[12] = Staphylococcus aureus, Table 2, WHO-25, read-out: MIC
[13] = Table 1, VRE (WHO-3), 1 isolate
[14] = Table 1, MRSA (WHO-31), 1 isolate
[15] = Table 1, ORSA (WHO-25), 1 isolate
[16] = Staphylococcus aureus, Table 3, data from 8 isolates, read-out: MIC
[17] = Staphylococcus epidermidis, Table 3, data from 4 isolates, read-out: MIC

| SMILES | MIC [1, 8] | MIC [2, 9] | MIC [3, 10] | MIC [4, 8] | MIC [5, 11] | MIC [6, 12] | MIC ([1]; Table 2, data from 8 isolates) | MIC ([2]; Table 2, WHO-3) | MIC ([3]; Table 2, data from 4 isolates) | MIC ([4]; Table 2, data from 8 isolates) | MIC ([5]; Table 2, WHO-31) | MIC ([6]; Table 2, WHO-25) | further results |
| --- | --- | --- | --- | --- | --- | --- | --- | --- | --- | --- | --- | --- | --- |
| O=C(c1cc(Cl)c(O)cc1O)c1[nH]c(Cl)c(Cl)c1-n1c(C(=O)c2cc(Cl)c(O)cc2O)cc(Cl)c1Cl [Compound 19, (4,4′,5,5′-Tetrachloro-1′H-1,3′-bipyrrole-2,2′-diyl)bis((5-chloro-2,4-dihydroxyphenyl)methanone)] | 32 µg/mL (≈ 52.4 µM) | 4 µg/mL (≈ 6.55 µM) | 4 to 8 µg/mL (≈ 6.55 to 13.1 µM) | 32 µg/mL (≈ 52.4 µM) | 8 µg/mL (≈ 13.1 µM) | 8 µg/mL (≈ 13.1 µM) |  |  |  |  |  |  | fold decreased potency compared with compound 1m ([3]; against MRSE): 2-16 fold; fold decreased potency compared with compound 1m ([4]; against MRSA): 4-16 fold |
| O=C(c1ccccc1C(F)(F)F)c1[nH]c(Cl)c(Cl)c1-n1c(C(=O)c2ccccc2C(F)(F)F)cc(Cl)c1Cl [Compound 1j] |  |  |  |  |  |  |  |  |  |  |  |  | MIC ([1]; Table 1, 10 isolates): >128 µg/mL; MIC [7]: >128 µg/mL; MIC [2, 13]: >128 µg/mL; MIC ([3]; Table 1, 3 isolates): >128 µg/mL; MIC (K. penumonia): >128 µg/mL; MIC (E. coli): >128 µg/mL; MIC ([4]; Table 1, 10 isolates): >128 µg/mL; MIC (P. aeruginosa): >128 µg/mL; MIC [5, 14]: >128 µg/mL; MIC [6, 15]: >128 µg/mL |
| O=C(c1cccc(F)c1)c1[nH]c(Cl)c(Cl)c1-n1c(C(=O)c2cccc(F)c2)cc(Cl)c1Cl [Compound 1h] |  |  |  |  |  |  |  |  |  |  |  |  | MIC ([1]; Table 1, 10 isolates): 4 to 16 µg/mL; MIC [7]: >128 µg/mL; MIC [2, 13]: 4 µg/mL (≈ 7.78 µM); MIC ([3]; Table 1, 3 isolates): 0.13 to 1 µg/mL; MIC (K. penumonia): >128 µg/mL; MIC (E. coli): >128 µg/mL; MIC ([4]; Table 1, 10 isolates): >64 µg/mL; MIC (P. aeruginosa): >128 µg/mL; MIC [5, 14]: 4 µg/mL (≈ 7.78 µM); MIC [6, 15]: 4 µg/mL (≈ 7.78 µM) |
| O=C(O)CSc1ccc(C(=O)c2[nH]c(Cl)c(Cl)c2-n2c(C(=O)c3ccc(SCC(=O)O)cc3O)cc(Cl)c2Cl)c(O)c1 [Compound 31] | > 64 µg/mL | 32 µg/mL (≈ 46.4 µM) | 32 to 64 µg/mL (≈ 46.4 to 92.7 µM) | > 64 µg/mL | > 64 µg/mL | > 64 µg/mL |  |  |  |  |  |  |  |
| Cc1cc(O)c(C(=O)c2[nH]c(Cl)c(Cl)c2-n2c(C(=O)c3cc(Cl)c(C)cc3O)cc(Cl)c2Cl)cc1Cl [CCW14] |  |  |  |  |  |  |  |  |  |  |  |  | MIC [1, 16]: 1 µg/mL (≈ 1.65 µM); MIC ([2]; Enterococcus, Table 3, WHO-3, read-out: MIC): 4 µg/mL (≈ 6.59 µM); MIC [3, 17]: 1 µg/mL (≈ 1.65 µM); MIC [4, 16]: 1 µg/mL (≈ 1.65 µM); MIC ([5]; Staphylococcus aureus, Table 3, WHO-31, read-out: MIC): 1 µg/mL (≈ 1.65 µM); MIC ([6]; Staphylococcus aureus, Table 3, WHO-25, read-out: MIC): 4 µg/mL (≈ 6.59 µM) |
| O=C(O)CS(=O)(=O)c1ccc(C(=O)c2[nH]c(Cl)c(Cl)c2-n2c(C(=O)c3ccc(S(=O)(=O)CC(=O)O)cc3O)cc(Cl)c2Cl)c(O)c1 [Compound 32] | > 64 µg/mL | 64 µg/mL (≈ 84.8 µM) | 8 to 64 µg/mL (≈ 10.6 to 84.8 µM) | > 64 µg/mL | > 64 µg/mL | > 64 µg/mL |  |  |  |  |  |  |  |
| COc1ccc(CS(=O)(=O)c2ccc(C(=O)c3[nH]c(Cl)c(Cl)c3-n3c(C(=O)c4ccc(S(=O)(=O)Cc5ccc(OC)cc5)cc4O)cc(Cl)c3Cl)c(O)c2)cc1 [Compound 30] |  |  |  |  |  |  | >64 µg/mL | >64 µg/mL | 2 to 16 µg/mL | >64 µg/mL | >64 µg/mL | >64 µg/mL |  |
| O=C(c1ccc(O)cc1O)c1[nH]c(Cl)c(Cl)c1-n1c(C(=O)c2ccc(O)cc2O)cc(Cl)c1Cl [Compound 24, (4,4′,5,5′-Tetrachloro-1′H-1,3′-bipyrrole-2,2′-diyl)bis((2,4-dihydroxyphenyl)methanone)] | 2 µg/mL (≈ 3.69 µM) | 4 µg/mL (≈ 7.38 µM) | 2 to 8 µg/mL (≈ 3.69 to 14.8 µM) | 2 µg/mL (≈ 3.69 µM) | 2 µg/mL (≈ 3.69 µM) | 4 µg/mL (≈ 7.38 µM) |  |  |  |  |  |  |  |
| O=C(c1ccc(S(=O)(=O)Cc2ccccc2)cc1O)c1[nH]c(Cl)c(Cl)c1-n1c(C(=O)c2ccc(S(=O)(=O)Cc3ccccc3)cc2O)cc(Cl)c1Cl [Compound 29, (4,4′,5,5′-Tetrachloro-1′H-1,3′-bipyrrole-2,2′-diyl)bis(((2-hydroxy-4-benzylsulfonyl)phenyl)methanone)] |  |  |  |  |  |  | >64 µg/mL | 8 µg/mL (≈ 9.77 µM) | 32 µg/mL (≈ 39.1 µM) | >64 µg/mL | 64 µg/mL (≈ 78.2 µM) | 32 µg/mL (≈ 39.1 µM) |  |
| CCOC(=O)CS(=O)(=O)c1ccc(C(=O)c2[nH]c(Cl)c(Cl)c2-n2c(C(=O)c3ccc(S(=O)(=O)CC(=O)OCC)cc3O)cc(Cl)c2Cl)c(O)c1 [Compound 28] |  |  |  |  |  |  | >64 µg/mL | 4 µg/mL (≈ 4.94 µM) | 8 µg/mL (≈ 9.87 µM) | >64 µg/mL | >64 µg/mL | 32 µg/mL (≈ 39.5 µM) |  |
| O=C(c1ccccc1O)c1[nH]c(Cl)c(Cl)c1-n1c(C(=O)c2ccccc2O)cc(Cl)c1Cl (racemic) [Compound 1, marinopyrrole A, reference compound] |  |  |  |  |  |  |  |  |  |  |  |  | higher potency than vancomycin (fold) ([2]; against moderately resistant VRE (Table 1)): 128-256 fold |
| O=C(c1ccc(SCc2ccccc2)cc1O)c1[nH]c(Cl)c(Cl)c1-n1c(C(=O)c2ccc(SCc3ccccc3)cc2O)cc(Cl)c1Cl [Compound 26, (4,4′,5,5′-Tetrachloro-1′H-1,3′-bipyrrole-2,2′-diyl)bis(((2-hydroxy-4-benzylthio)phenyl)methanone)] |  |  |  |  |  |  | >64 µg/mL | 16 µg/mL (≈ 21.2 µM) | 8 to 32 µg/mL | >64 µg/mL | >64 µg/mL | >64 µg/mL |  |
| O=C(c1ccc(C(F)(F)F)cc1O)c1[nH]c(Cl)c(Cl)c1-n1c(C(=O)c2ccc(C(F)(F)F)cc2O)cc(Cl)c1Cl [Compound 41, (4,4′,5,5′-tetrachloro-1′H-1,3′-bipyrrole-2,2′-diyl)bis((2-hydroxy-4-(trifluoromethyl)phenyl)methanone)] | 0.125 µg/mL (≈ 0.193 µM) | 0.5 µg/mL (≈ 0.774 µM) | < 0.008 µg/mL | 0.125 to 0.25 µg/mL (≈ 0.193 to 0.387 µM) | 1 µg/mL (≈ 1.55 µM) | 1 µg/mL (≈ 1.55 µM) |  |  |  |  |  |  | MIC ([1]; Table 3, data from 8 isolates): 0.125 µg/mL (≈ 0.193 µM); fold more potent than marinopyrrole A ([1]; against MSSA): 4 fold; fold more potent than vancomycin ([1]; against MSSA): 8 fold; MIC ([2]; Table 3, WHO-3): 0.5 µg/mL (≈ 0.774 µM); MIC [3, 17]: < 0.008 µg/mL; MIC ([3]; Staphylococcus epidermidis, against MRSE, read-out: MIC): 0.008 µg/mL (≈ 0.0124 µM); fold more potent than marinopyrrole A ([3]; against MRSE): > 31 fold and 31 fold; fold more potent than vancomycin ([3]; against MRSE): > 62 fold and 63-125 fold; MIC ([4]; Table 3, data from 8 isolates): 0.125 to 0.25 µg/mL; fold more potent than marinopyrrole A ([4]; against MRSA): 2-4 fold and 4 fold; fold more potent than vancomycin ([4]; against MRSA): 2-4 fold and 4-8 fold; MIC ([5]; Table 3, WHO-31): 1 µg/mL (≈ 1.55 µM); MIC ([6]; Table 3, WHO-25): 1 µg/mL (≈ 1.55 µM) |
| COc1ccc(CSc2ccc(C(=O)c3[nH]c(Cl)c(Cl)c3-n3c(C(=O)c4ccc(SCc5ccc(OC)cc5)cc4O)cc(Cl)c3Cl)c(O)c2)cc1 [Compound 27] |  |  |  |  |  |  | >64 µg/mL | 16 µg/mL (≈ 19.6 µM) | 8 to 64 µg/mL | >64 µg/mL | >64 µg/mL | >64 µg/mL |  |
| CCOC(=O)CSc1ccc(C(=O)c2[nH]c(Cl)c(Cl)c2-n2c(C(=O)c3ccc(SCC(=O)OCC)cc3O)cc(Cl)c2Cl)c(O)c1 [Compound 25] |  |  |  |  |  |  | 64 µg/mL (≈ 85.7 µM) | 2 µg/mL (≈ 2.68 µM) | 8 µg/mL (≈ 10.7 µM) | 32 to 64 µg/mL | 16 µg/mL (≈ 21.4 µM) | 64 µg/mL (≈ 85.7 µM) |  |
